Laboratory results taken from patent US20230053540A1, “TREATMENT OF LIVER INJURY” (Massachusetts Institute of Technology, priority 2019, published 2023).

Tested on: hepatocytes
Experiment: Seq-Well scRNA-Seq of hepatocytes after APAP overdose (signature scores, DEG vs untreated)
Format: in vivo, mouse
[1] = cluster A96 (APAP, 96 h) vs other clusters, Wilcox
[2] = cluster A96, DEG between treatment (APAP and PH)

## CC(=O)Nc1ccc(O)cc1 [APAP, acetaminophen]
[1]
  Acaa1b avg_logFC: 0.282
  Acat1 avg_logFC: 0.2558
  Acot1 avg_logFC: 0.3106
  Agpat6 avg_logFC: 0.3143
  Agt avg_logFC: 0.255
  Akr1d1 avg_logFC: 0.2994
  Aldh9a1 avg_logFC: 0.2585
  Apo17a avg_logFC: 0.2518
  Apoc2 avg_logFC: 0.2781
  Aqp9 avg_logFC: 0.3178
  Arl4a avg_logFC: 0.2706
  Asl avg_logFC: 0.275
  Baat avg_logFC: 0.2728
  Bnip3 avg_logFC: 0.3208
  Cd36 avg_logFC: 0.3129
  Ces1e avg_logFC: 0.2566
  Cox5a avg_logFC: 0.2728
  Cox6a1 avg_logFC: 0.2746
  Cox8a avg_logFC: 0.2519
  Cpeb4 avg_logFC: 0.3011
  Cpox avg_logFC: 0.3229
  Cpt1a avg_logFC: 0.2626
  Creg1 avg_logFC: 0.2517
  Csad avg_logFC: 0.4207
  Ctage5 avg_logFC: 0.2535
  Cth avg_logFC: 0.2966
  Cxcl12 avg_logFC: 0.2822
  D4Wsu53e avg_logFC: 0.2928
  Decr2 avg_logFC: 0.3018
  Dhdh avg_logFC: 0.2626
  Etfdh avg_logFC: 0.2639
  Etnppl avg_logFC: 0.3154
  Fmo1 avg_logFC: 0.265
  G0s2 avg_logFC: 0.2656
  G6pc avg_logFC: 0.2541
  Gabarapl1 avg_logFC: 0.2932
  Gadd45b avg_logFC: 0.2598
  Gas5 avg_logFC: 0.2823
  Gm4952 avg_logFC: 0.2581
  Gsta2 avg_logFC: 0.311
  Gstt3 avg_logFC: 0.3026
  Gyk avg_logFC: 0.3134
  Hmgcl avg_logFC: 0.2744
  Hmgcs1 avg_logFC: 0.3251
  Hpgd avg_logFC: 0.3412
  Hsd17b7 avg_logFC: 0.3028
  Hsd17b10 avg_logFC: 0.2802
  Kif1b avg_logFC: 0.2961
  Leaf avg_logFC: 0.2616
  Mia3 avg_logFC: 0.2605
  Ndufa3 avg_logFC: 0.2743
  Ndufa7 avg_logFC: 0.26
  Nr1i3 avg_logFC: 0.3481
  Oat avg_logFC: 0.4904
  Pon1 avg_logFC: 0.2899
  Ppp1r3b avg_logFC: 0.251
  Ppp2r5a avg_logFC: 0.3505
  Ptms avg_logFC: 0.2863
  Pxmp4 avg_logFC: 0.2555
  Rdh16 avg_logFC: 0.3477
  Sc4mol avg_logFC: 0.3361
  Slc4a4 avg_logFC: 0.2977
  Slc25a20 avg_logFC: 0.2507
  Slco1a4 avg_logFC: 0.3049
  Snord118 avg_logFC: 0.3782
  Tgoln1 avg_logFC: 0.2809
  Tmed5 avg_logFC: 0.2523
  Tobi avg_logFC: 0.2958
  Tsc22d3 avg_logFC: 0.3362
  Zfp36l1 avg_logFC: 0.2964
  Zfp91 avg_logFC: 0.2775
[2]
  avg_logFC, gene Abcc3: 0.2743
  avg_logFC, gene Acaa1b: 0.282
  avg_logFC, gene Acat1: 0.2558
  avg_logFC, gene Acot1: 0.3106
  avg_logFC, gene Agpat6: 0.3143
  avg_logFC, gene Agt: 0.255
  avg_logFC, gene Akr1d1: 0.2994
  avg_logFC, gene Aldh9a1: 0.2585
  avg_logFC, gene Aplp2: 0.2903
  avg_logFC, gene Apo17a: 0.2518
  avg_logFC, gene Apoc2: 0.2781
  avg_logFC, gene Aqp9: 0.3178
  avg_logFC, gene Arl4a: 0.2706
  avg_logFC, gene Asl: 0.275
  avg_logFC, gene Baat: 0.2728
  avg_logFC, gene Bnip3: 0.3208
  avg_logFC, gene Cd36: 0.3129
  avg_logFC, gene Ces1e: 0.2566
  avg_logFC, gene Cox5a: 0.2728
  avg_logFC, gene Cox6a1: 0.2745
  avg_logFC, gene Cox8a: 0.2519
  avg_logFC, gene Cpeb4: 0.3011
  avg_logFC, gene Cpox: 0.3229
  avg_logFC, gene Cpt1a: 0.2626
  avg_logFC, gene Creg1: 0.2517
  avg_logFC, gene Csad: 0.4207
  avg_logFC, gene Ctage5: 0.2535
  avg_logFC, gene Cth: 0.2966
  avg_logFC, gene Cxcl12: 0.2821
  avg_logFC, gene D4Wsu53e: 0.2928
